How the values were obtained:
Capsella bursa-pastoris = assay: Pot-culture greenhouse foliage treatment, fresh weight inhibition (Gowing method); format: in vivo; conditions: foliage spray
Experimental: (§1) The above weeds were cultivated by a pot culture method. […] Full and uniform weed seeds were selected, soaked in warm water at 25° C. for 6 hours, and germinated in a 28° C. biochemical incubator (darkness). […] A certain amount of water was added to the enamel pan regularly to keep the soil moist.
(§2) Since these several agents were soluble in acetone, any two TCs were dissolved in acetone, and diluted with an aqueous solution containing 0.1% emulsifier T-80. The dilution was performed as required.
(§3) A ratio of glufosinate ammonium or glyphosate and shuangzuocaotong and amounts thereof in each group depends on the characteristics and toxicity of the two agents, as well as the main application purpose of a corresponding formulation. Glyphosate is a non-selective herbicide and is absorbed by foliage and translocated to various parts of the plant, which is different from the mechanism of action of glufosinate ammonium, i.e., killing roots. […] The control spectrum of Shuangzuocaotong is complementary to that of glyphosate or that of glufosinate ammonium to some extent. […] Based on the pre-tests in this study, the doses of glyphosate, glufosinate ammonium, and Shuangzuocaotong applied alone and in combination were shown in the Table 1 and Table 2, and a total 15 groups were designed, respectively. Water containing the solvent and emulsifying agent same with the above groups but free of the agents was used as a blank control.
(§4) 3 pots with 20 weed seeds per pot were treated in one treatment with […] per treatment, that is, a total of 60 weeds were treated in one treatment.
(§5) The agents were used for only once in the experiment. In the stage of weeds with 2 leaves and 1 core, the weeds were thinned out to maintain 15 weeds per pot and 45 weeds for each treatment, then continued to be cultured until the four true leaves of Descurainia sophia and Capsella bursa-pastoris emerged, and treated.
(§6) The well-cultured weeds were evenly placed on a platform with an area of 0.5 m^2, and a solution of agents was sprayed on the foliage thereof by the 3WP-2000-type walking spray tower at a dosage of 30 kg/ha and at a spray pressure of 0.3 MPa. After all the solution was sprayed, the valve was closed. After 30 seconds, the door of the spray tower was opened, and the nutritional bowl was taken out. Then the valve was opened, and the spray tube was cleaned by spraying 50 ml of water.
(§7) A pot-culture method was employed. For the cultivation of weeds, please refer to the Section 1.1, and “Pesticide guidelines for laboratory bioactivity tests—herbicides”. As to a method for applying agents, please refer to the section 2.3.2, that is, a method for foliage treatment was employed.
(§8) A method for investigating absolute number was employed, wherein whole seedlings of survival weeds were cut off with a blade along the soil surface, and the fresh weight of the weeds was weighed with an analytical balance. For dead weeds, the fresh weight thereof was zero.
(§9) The investigation was performed after 20 days of the treatment for only once.

Descurainia Sophia = assay: as above; format: in vivo; conditions: foliage spray
Experimental: as §1, §2, §3, §4, §5, §6, §7, §8, §9

[1] = dose 67.5 g/hm^2, after 20 days (Table 2)
[2] = dose 90 g/hm^2, after 20 days (Table 2)
[3] = dose 112.5 g/hm^2, after 20 days (Table 2)
[4] = dose 1125 g/hm^2, after 20 days

## CP(=O)(O)CCC(N)C(=O)O.N (racemic) [Glufosinate ammonium, ammonium-DL-homoalanin-4-yl(methyl)phosphinate]
Capsella bursa-pastoris; dose 300 g/hm^2, after 20 days
  actual fresh weight inhibition rate: 48.2%
Capsella bursa-pastoris; dose 450 g/hm^2, after 20 days
  actual fresh weight inhibition rate: 73.2%
Capsella bursa-pastoris; dose 600 g/hm^2, after 20 days
  actual fresh weight inhibition rate: 93.5%
Descurainia Sophia; dose 300 g/hm^2, after 20 days
  actual fresh weight inhibition rate: 49.8%
Descurainia Sophia; dose 450 g/hm^2, after 20 days
  actual fresh weight inhibition rate: 71.6%
Descurainia Sophia; dose 600 g/hm^2, after 20 days
  actual fresh weight inhibition rate: 92.6%

## Cc1nn(C)cc1C(=O)Oc1c(C(=O)c2ccc(C(F)(F)F)cc2S(C)(=O)=O)c(C)nn1C [Shuangzuocaotong]
Capsella bursa-pastoris; dose 15 g/hm^2, after 20 days
  actual fresh weight inhibition rate: 53.2%
Capsella bursa-pastoris; dose 30 g/hm^2, after 20 days
  actual fresh weight inhibition rate: 75.2%
Capsella bursa-pastoris; dose 45 g/hm^2, after 20 days
  actual fresh weight inhibition rate: 91.3%
Capsella bursa-pastoris; [1]
  actual fresh weight inhibition rate: 54.1%
Capsella bursa-pastoris; [2]
  actual fresh weight inhibition rate: 72.4%
Capsella bursa-pastoris; [3]
  actual fresh weight inhibition rate: 93.5%
Descurainia Sophia; dose 15 g/hm^2, after 20 days
  actual fresh weight inhibition rate: 54.2%
Descurainia Sophia; dose 30 g/hm^2, after 20 days
  actual fresh weight inhibition rate: 76.2%
Descurainia Sophia; dose 45 g/hm^2, after 20 days
  actual fresh weight inhibition rate: 90.2%
Descurainia Sophia; [1]
  actual fresh weight inhibition rate: 53.3%
Descurainia Sophia; [2]
  actual fresh weight inhibition rate: 74.3%
Descurainia Sophia; [3]
  actual fresh weight inhibition rate: 86.2%

## O=C(O)CNCP(=O)(O)O [glyphosate, N-(phosphonomethyl)glycine]
Capsella bursa-pastoris; dose 675 g/hm^2, after 20 days
  actual fresh weight inhibition rate: 53.2%
Capsella bursa-pastoris; dose 900 g/hm^2, after 20 days
  actual fresh weight inhibition rate: 74.6%
Capsella bursa-pastoris; [4]
  actual fresh weight inhibition rate: 92.4%
Descurainia Sophia; dose 675 g/hm^2, after 20 days
  actual fresh weight inhibition rate: 55.2%
Descurainia Sophia; dose 900 g/hm^2, after 20 days
  actual fresh weight inhibition rate: 73.1%
Descurainia Sophia; [4]
  actual fresh weight inhibition rate: 91.4%
